Measurements from the supplement of paper PMC4862054.

Columns and labels:
Conditions in all cases: incubation time: 72 h
BT-474 [1] = assay: normalised response (% of control), CellTiter-Glo; higher = more viable cells (100 = DMSO, 0 = benzethonium chloride kill control)
Method in brief: (§1)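 Two readouts were taken after 72 h: CellTox Green fluorescence (485/520 nm) first, then CellTiter-Glo luminescence after 10 min at room temperature. Breast cancer cell lines had been seeded as 20 µl suspension into 384-well plates holding compound at 5 concentrations in 10-fold steps across a compound-specific 10,000-fold range. Each value is a normalised signal at a single concentration, with plates scaled to 0.1 % DMSO (100) and a positive kill control (0).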

BT-549 [2] = assay: as above
Method in brief: as §1

CAL-120 [3] = assay: as above
Method in brief: as §1

CAL-148 [4] = assay: as above
Method in brief: as §1

CAL-51 [5] = assay: as above
Method in brief: as §1

CAL-85-1 [6] = assay: as above
Method in brief: as §1

DU-4475 [7] = assay: as above
Method in brief: as §1

HCC1143 [8] = assay: as above
Method in brief: as §1

HCC1599 [9] = assay: as above
Method in brief: as §1

HCC1937 [10] = assay: as above
Method in brief: as §1

HDQ-P1 [11] = assay: as above
Method in brief: as §1

Hs578T [12] = assay: as above
Method in brief: as §1

MCF-10A = assay: as above
Method in brief: as §1

MDA-MB-231 [13] = assay: as above
Method in brief: as §1

MDA-MB-436 [14] = assay: as above
Method in brief: as §1

MDA-MB-453 [15] = assay: as above
Method in brief: as §1

MDA-MB-468 [16] = assay: as above
Method in brief: as §1

MFM-223 [17] = assay: as above
Method in brief: as §1

SK-BR-3 [18] = assay: as above
Method in brief: as §1

BT-474 [19] = assay: normalised viability (% of control), CellTiter-Blue; higher = more viable cells (100 = DMSO, 0 = benzethonium chloride kill control)
Procedure: (§2)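 DSRT, CellTiter-Blue viability, 72 h incubation. Signal is normalised to DMSO and benzethonium chloride controls. Value is the normalised response at dose 1.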

BT-549 [20] = assay: as above
Procedure: as §2

CAL-120 [21] = assay: as above
Procedure: as §2

CAL-148 [22] = assay: as above
Procedure: as §2

CAL-51 [23] = assay: as above
Procedure: as §2

CAL-85-1 [24] = assay: as above
Procedure: as §2

DU-4475 [25] = assay: as above
Procedure: as §2

HCC1143 [26] = assay: as above
Procedure: as §2

HCC1599 [27] = assay: as above
Procedure: as §2

HCC1937 [28] = assay: as above
Procedure: as §2

HDQ-P1 [29] = assay: as above
Procedure: as §2

Hs578T [30] = assay: as above
Procedure: as §2

MDA-MB-231 [31] = assay: as above
Procedure: as §2

MDA-MB-436 [32] = assay: as above
Procedure: as §2

MDA-MB-453 [33] = assay: as above
Procedure: as §2

MDA-MB-468 [34] = assay: as above
Procedure: as §2

MFM-223 [35] = assay: as above
Procedure: as §2

SK-BR-3 [36] = assay: as above
Procedure: as §2

SMILES | normalised response (BT-474 [1]) | normalised response (BT-549 [2]) | normalised response (CAL-120 [3]) | normalised response (CAL-148 [4]) | normalised response (CAL-51 [5]) | normalised response (CAL-85-1 [6]) | normalised response (DU-4475 [7]) | normalised response (HCC1143 [8]) | normalised response (HCC1599 [9]) | normalised response (HCC1937 [10]) | normalised response (HDQ-P1 [11]) | normalised response (Hs578T [12]) | normalised response (MCF-10A) | normalised response (MDA-MB-231 [13]) | normalised response (MDA-MB-436 [14]) | normalised response (MDA-MB-453 [15]) | normalised response (MDA-MB-468 [16]) | normalised response (MFM-223 [17]) | normalised response (SK-BR-3 [18]) | normalised viability (BT-474 [19]) | normalised viability (BT-549 [20]) | normalised viability (CAL-120 [21]) | normalised viability (CAL-148 [22]) | normalised viability (CAL-51 [23]) | normalised viability (CAL-85-1 [24]) | normalised viability (DU-4475 [25]) | normalised viability (HCC1143 [26]) | normalised viability (HCC1599 [27]) | normalised viability (HCC1937 [28]) | normalised viability (HDQ-P1 [29]) | normalised viability (Hs578T [30]) | normalised viability (MDA-MB-231 [31]) | normalised viability (MDA-MB-436 [32]) | normalised viability (MDA-MB-453 [33]) | normalised viability (MDA-MB-468 [34]) | normalised viability (MFM-223 [35]) | normalised viability (SK-BR-3 [36])
C=CC[C@@H]1/C=C(\C)C[C@H](C)C[C@H](OC)[C@H]2O[C@@](O)(C(=O)C(=O)N3CCCC[C@H]3C(=O)O[C@H](/C(C)=C/[C@@H]3CC[C@@H](O)[C@H](OC)C3)[C@H](C)[C@@H](O)CC1=O)[C@H](C)C[C@@H]2OC [Tacrolimus] (1 nM) | 101% | 96.6% | 98% | 103% | 93.1% | 97.8% | 102% | 93.9% | 103% | 98.8% | 118% | 99.1% | 106% | 99.3% | 103% | 110% | 98.7% | 98.5% | 109% | 71% | 109% | 111% | 110% | 105% | 98.6% | 98.5% | 109% | 99.3% | 102% | 114% | 106% | 102% | 119% | 107% | 110% | 116% | 98.2%
Nc1ccn([C@@H]2O[C@H](CO)[C@@H](O)[C@@H]2O)c(=O)n1 [Cytarabine] (1 nM) | 103% | 93.5% | 98.7% | 99.7% | 75.7% | 98.8% | 100% | 97.6% | 108% | 99.3% | 96.6% | 102% | 112% | 93.3% | 102% | 99.8% | 97.8% | 103% | 101% | 75.4% | 86.8% | 96.1% | 106% | 89.8% | 101% | 111% | 108% | 111% | 95.3% | 96.5% | 93.9% | 92.2% | 101% | 96.3% | 98.1% | 102% | 101%
Clc1ccc(C(c2ccccc2Cl)C(Cl)Cl)cc1 (centres undefined) [Mitotane] (1 nM) | 90.7% | 108% | 95.2% | 99.4% | 109% | 95.5% | 95.3% | 101% | 103% | 94.5% | 97.8% | 102% | 94.9% | 93.6% | 85.8% | 96% | 96.4% | 97.7% | 95.4% | 89.9% | 103% | 99.2% | 117% | 111% | 92.4% | 104% | 98% | 112% | 83.8% | 112% | 118% | 99% | 90.9% | 107% | 108% | 95.1% | 101%
CN1CC[C@H](c2c(O)cc(O)c3c(=O)cc(-c4ccccc4Cl)oc23)[C@H](O)C1 [Alvocidib] (1 nM) | 92.2% | 106% | 102% | 104% | 80.2% | 110% | 104% | 96.5% | 94.2% | 103% | 94.9% | 98.1% | 95.2% | 103% | 97.9% | 115% | 106% | 98.2% | 112% | 92.3% | 104% | 75% | 104% | 102% | 83.5% | 101% | 78.5% | 99.6% | 96.4% | 79.7% | 73.7% | 98.1% | 94.3% | 95.8% | 113% | 88.3% | 97.4%
CS(=O)(=O)c1ccc(C(=O)Nc2ccc(Cl)c(-c3ccccn3)c2)c(Cl)c1 [Vismodegib] (1 nM) | 90.9% | 93.1% | 92.8% | 103% | 120% | 99.2% | 98.9% | 94.3% | 101% | 92.3% | 96.7% | 95.9% | 94% | 95.5% | 100% | 89.3% | 98.7% | 86.8% | 91.6% | 103% | 88.3% | 86.2% | 94.9% | 108% | 104% | 103% | 94.9% | 105% | 103% | 75.3% | 115% | 100% | 94.2% | 103% | 99.6% | 96% | 93.7%
Cc1c2oc3c(C)ccc(C(=O)N[C@@H]4C(=O)N[C@H](C(C)C)C(=O)N5CCC[C@H]5C(=O)N(C)CC(=O)N(C)[C@@H](C(C)C)C(=O)O[C@@H]4C)c3nc-2c(C(=O)N[C@@H]2C(=O)N[C@H](C(C)C)C(=O)N3CCC[C@H]3C(=O)N(C)CC(=O)N(C)[C@@H](C(C)C)C(=O)O[C@@H]2C)c(N)c1=O [Dactinomycin] (0.1 nM) | 96% | 99.8% | 94.2% | 97.4% | 101% | 107% | 103% | 106% | 90.6% | 95.9% | 93.1% | 110% | 104% | 102% | 123% | 102% | 92.2% | 104% | 99% | 95.7% | 91.3% | 95.6% | 90.5% | 94% | 97.2% | 90.5% | 93.7% | 79.1% | 78.5% | 108% | 125% | 91.6% | 94.9% | 94.6% | 92.2% | 104% | 96%
OC[C@H]1O[C@@H](n2cnc3c2N=CNC[C@H]3O)C[C@@H]1O [Pentostatin] (1 nM) | 98.7% | 93.8% | 96.7% | 104% | 111% | 94.8% | 103% | 103% | 121% | 100% | 100% | 98.4% | 107% | 98.8% | 83.4% | 107% | 101% | 99.8% | 108% | 82.4% | 91.7% | 114% | 118% | 89.3% | 99.5% | 102% | 96.9% | 114% | 81.8% | 108% | 109% | 96.6% | 99% | 110% | 105% | 93.2% | 86.8%
